Data from US20160052926A1, “NOVEL PYRIMIDINE AND PYRIDINE COMPOUNDS AND USAGE THEREOF” (HUTCHISON MEDIPHARMA LIMITED, priority 2013, published 2016).

Columns and labels:
Recombinant human FGFR1 = Recombinant human FGFR1 (Homo sapiens, UniProt P11362); experiment: Transcreener Kinase Assay of FGFR1; format: biochemical; conditions: read-out: FGFR1 (FP) IC50
Procedure: Transcreener Kinase Assay of FGFR1
(§1) Prepare Solution • Compounds were solved in DMSO and were diluted with assay buffer to 5 folds of final concentration keeping the DMSO concentration at 5%. Further dilution are needed to make final concentrations are at 1, 0.33, 0.11, 0.037, 0.012, 0.004, 0.0014, 0.0005 μM; (the final concentration of DMSO is 1%). • Enzyme/Substrate stock Preparation: Recombinant human FGFR1 and Poly E4Y are both diluted in assay buffer.
(§2) Enzymatic Reaction • In a 96-well plate, Add 5 μL of compound or control. (positive control: 5 μL of 5% DMSO; negative control: 5 μL of 500 mM EDTA) into desired wells; • Add 10 μL of Enzyme/Substrate stock into each well; • Add 10 μL of ATP Diluents to initiate the enzyme reaction and votex the plate immediately on a plate shaker; • For the wells to make standard curve, add 5 μL of 5% DMSO, 10 μL of assay buffer and 10 μL of ATP standard curve stock. • Incubate the plate for 45 min at 28[…] on a plate shaker in a low speed.
Excitation wavelength: 610 nm, Emission wavelength: 670 nm.
(§3) • [ADP] in Compound well represents the ADP concentration in compound well. • [ADP] in Positive control well represents the ADP concentration in 5% DMSO well • Conversion of mP value to ADP concentration is calculated based on the formula which determined by standard curve. And mP value is measured by following the instruction provided by BellBrook Labs. (www.bellbrooklabs.com). 6. IC50: calculated using XL-Fit 2.0 software.

Recombinant human FGFR2 = Recombinant human FGFR2 (Homo sapiens, UniProt P21802); experiment: Transcreener Kinase Assay of FGFR2; format: biochemical; conditions: read-out: FGFR2 (FP) IC50
Recombinant human FGFR2, sequence (P21802 22-821): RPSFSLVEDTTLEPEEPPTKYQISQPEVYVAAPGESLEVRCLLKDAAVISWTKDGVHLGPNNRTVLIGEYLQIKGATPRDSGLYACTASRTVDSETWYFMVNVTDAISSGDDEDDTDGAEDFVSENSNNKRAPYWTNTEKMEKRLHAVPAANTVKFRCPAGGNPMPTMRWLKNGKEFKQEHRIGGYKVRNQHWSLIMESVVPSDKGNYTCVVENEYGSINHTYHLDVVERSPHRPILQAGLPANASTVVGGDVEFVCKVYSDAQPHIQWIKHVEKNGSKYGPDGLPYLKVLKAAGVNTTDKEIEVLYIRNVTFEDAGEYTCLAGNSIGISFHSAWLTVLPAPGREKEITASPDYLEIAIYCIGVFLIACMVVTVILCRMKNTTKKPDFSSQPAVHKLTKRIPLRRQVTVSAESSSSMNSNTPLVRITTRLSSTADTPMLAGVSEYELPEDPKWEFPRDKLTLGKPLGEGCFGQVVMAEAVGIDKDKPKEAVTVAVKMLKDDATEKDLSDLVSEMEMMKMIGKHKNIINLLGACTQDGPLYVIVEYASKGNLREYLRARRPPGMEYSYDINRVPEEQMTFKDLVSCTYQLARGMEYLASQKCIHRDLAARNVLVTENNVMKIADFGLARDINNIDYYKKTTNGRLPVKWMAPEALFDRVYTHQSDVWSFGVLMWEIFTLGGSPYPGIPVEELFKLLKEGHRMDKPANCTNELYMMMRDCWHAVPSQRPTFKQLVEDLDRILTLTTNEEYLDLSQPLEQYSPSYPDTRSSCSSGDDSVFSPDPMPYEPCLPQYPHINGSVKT
Procedure: Transcreener Kinase Assay of FGFR2
as §1, with “•” for “Prepare Solution •”, “FGFR2” for “FGFR1”, “buffer. The final concentration is 0.3 ng/μL for FGFR2 and 62.5 ng/μL for Poly E4Y. The mixture is being kept in ice before use; • Prepare ATP Diluents, 10 mM ATP is diluted in assay buffer, the final concentration is 25 μM; • Prepare ADP Diluents: diluted ADP (500 μM) in assay buffer, the final concentration is 25 μM; • Prepare ATP standard curve stock as following:” for “buffer.”
as §2, with “•” for “Enzymatic Reaction •”
• Detection Mix Preparation: The mixture is made by dilution with MilliQ water; as following: ADP Alexa633 tracer (1:100), ADP antibody (1:158), and stop & detect buffer (1:10); • Tracer Only control Preparation: The mixture is made by dilution with MilliQ water; as following: ADP Alexa633 tracer (1:100), and stop & detect buffer (1:10) • No Tracer control Preparation: stop & detect buffer is diluted with MilliQ water; by 10 fold. • Add 25 μL of detection mix, Tracer Only control and No Tracer control into corresponding wells, respectively; • Incubate at 28 °C for 1 h, on a plate shaker in a low speed; • Measure florescence polarization (FP) on TECAN F500. Excitation wavelength: 610 nm, Emission wavelength: 670 nm.
as §3

FGFR3 kinase = FGFR3 kinase (Homo sapiens, UniProt P22607); experiment: Z-Lyte Kinase Assay of FGFR3; format: biochemical
FGFR3 kinase, sequence (P22607 23-806): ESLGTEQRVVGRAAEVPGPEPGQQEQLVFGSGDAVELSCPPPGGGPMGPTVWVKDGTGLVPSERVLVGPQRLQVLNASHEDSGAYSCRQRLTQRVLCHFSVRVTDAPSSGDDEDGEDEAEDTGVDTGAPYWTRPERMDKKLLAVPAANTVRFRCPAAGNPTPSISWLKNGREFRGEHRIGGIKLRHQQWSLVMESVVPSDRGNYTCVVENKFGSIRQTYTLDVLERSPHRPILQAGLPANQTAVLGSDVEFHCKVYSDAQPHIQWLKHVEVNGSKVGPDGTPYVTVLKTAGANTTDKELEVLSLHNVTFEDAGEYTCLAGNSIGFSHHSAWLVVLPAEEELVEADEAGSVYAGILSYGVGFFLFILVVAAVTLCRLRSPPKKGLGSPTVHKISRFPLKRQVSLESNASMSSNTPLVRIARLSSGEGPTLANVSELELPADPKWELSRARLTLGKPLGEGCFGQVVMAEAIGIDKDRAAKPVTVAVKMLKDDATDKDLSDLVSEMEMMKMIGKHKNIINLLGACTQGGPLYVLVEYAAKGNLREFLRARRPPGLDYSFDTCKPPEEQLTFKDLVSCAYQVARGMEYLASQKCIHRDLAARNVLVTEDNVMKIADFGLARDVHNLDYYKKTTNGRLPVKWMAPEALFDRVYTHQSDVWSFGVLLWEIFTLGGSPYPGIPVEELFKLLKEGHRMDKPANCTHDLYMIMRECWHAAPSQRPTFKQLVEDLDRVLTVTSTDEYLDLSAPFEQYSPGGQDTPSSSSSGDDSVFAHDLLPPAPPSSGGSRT
Procedure: Z-Lyte Kinase Assay of FGFR3
The final concentrations are 1, 0.33, 0.11, 0.037, 0.012, 0.004, 0.0014, 0.00046 μM, and the final concentration of DMSO is 2%. • 3) Kinase/Peptide Mixture (P/K solution): Prepare Kinase/Peptide Mixture by diluting the kinase to 0.7 μg/ml and the Z-LYTE™ Tyr 4 peptide to 4 μM in 1.33× Kinase Buffer. Mix gently by pipetting. • 4) Phospho-peptide Solution (PP solution): Add 0.4 μl of Z-LYTE™ Tyr 4 Phospho-peptide to 99.6 μl of 1.33× Kinase Buffer. • 5) ATP Solution: Prepare ATP Solution by diluting the 10 mM of ATP in 1.33× Kinase Buffer to 300 uM. • 6) Development Solution: Dilute Development Reagent B with Development Buffer as 1:128.
Shake the plate for 30 Sec and centrifuge (1500 rpm, 1 min) • Seal the plate to protect from the light and incubate the plate for 1 hour at RT (25-30[…]) • 2) Development reaction • Add 5 μl of the Development solution to all wells • Shake the plate for 30 Sec and centrifuge (1500 rpm, 1 min) • Seal the plate to protect from the light and incubate the plate for 1 hour at RT (25-30[…]) • 3) Stop and read • Add 5 μl of the Stop reagent to all wells • Shake the plate for 30 Sec and centrifuge (1500 rpm, 1 min) • Measure the value of Coumarin (Ex400 nm, Em445 nm) and fluorescein (Ex400 nm, Em520 nm), respectively.
Inhibition rate(IR)=1−%Photest Cpd/%PhoC2
• determined with add-in software for Microsoft Excel, XLfit™ (version 2.0) from ID Business Solutions (Guildford, UK)

KG-1 = experiment: Cellular Proliferation Assay (Cell Counting Kit-8), KG-1; format: cell-based; conditions: Homo sapiens, KG1 cells, 72 hours
Procedure: (§4) Cellular Proliferation Assay
(§5) • KG-1 (ATCC Accession No. CCL-246), • SNU-16 (ATCC Accession No. CRL-5974), • RT-112 (ECACC Accession No. 85061106)
(§6) • FGFR related cancer cell proliferation is measured in 96-well plates using Cell Counting Kit-8 (Dojindo CK04-13). • Seed 30000 cells/well of KG1, 5000 cells/well of SNU16, and 1000 cells/well of RT112 in a volume of 100 μL/well in growth media. • After 24 hours, dilute the compound to 10, 3.3, 1.1, 0.37, 0.12, 0.04, 0.013, 0.004 μM, keeping the DMSO concentration at 5%. • Add 10 μL of 8-point compound series to the wells of culturing cells. • Incubate at 37° C. and 5% CO2 for 72 hours • Add 10 μL/well of CCkit8 and incubate at 37° C. and 5% CO2 for an hour • Detect the optical density of each well at 450 nm on Labsystems Multiskan K3.
(§7) • ODcompound well represents the optical density of cells treated with compound. • ODcell well represents the optical density of cells without compounds treatment. (only 0.5% DMSO) • ODcontrol well represents the optical density of culture media background
(§8) The concentration of compound providing 50% of proliferation inhibition was calculated using Excel Fit.

SNU-16 = experiment: Cellular Proliferation Assay (Cell Counting Kit-8), SNU-16; format: cell-based; conditions: Homo sapiens, SNU-16 cells, 72 hours
Procedure: as §4, §5, §6, §7, §8

Recombinant human FGFR1, sequence (P11362 22-822): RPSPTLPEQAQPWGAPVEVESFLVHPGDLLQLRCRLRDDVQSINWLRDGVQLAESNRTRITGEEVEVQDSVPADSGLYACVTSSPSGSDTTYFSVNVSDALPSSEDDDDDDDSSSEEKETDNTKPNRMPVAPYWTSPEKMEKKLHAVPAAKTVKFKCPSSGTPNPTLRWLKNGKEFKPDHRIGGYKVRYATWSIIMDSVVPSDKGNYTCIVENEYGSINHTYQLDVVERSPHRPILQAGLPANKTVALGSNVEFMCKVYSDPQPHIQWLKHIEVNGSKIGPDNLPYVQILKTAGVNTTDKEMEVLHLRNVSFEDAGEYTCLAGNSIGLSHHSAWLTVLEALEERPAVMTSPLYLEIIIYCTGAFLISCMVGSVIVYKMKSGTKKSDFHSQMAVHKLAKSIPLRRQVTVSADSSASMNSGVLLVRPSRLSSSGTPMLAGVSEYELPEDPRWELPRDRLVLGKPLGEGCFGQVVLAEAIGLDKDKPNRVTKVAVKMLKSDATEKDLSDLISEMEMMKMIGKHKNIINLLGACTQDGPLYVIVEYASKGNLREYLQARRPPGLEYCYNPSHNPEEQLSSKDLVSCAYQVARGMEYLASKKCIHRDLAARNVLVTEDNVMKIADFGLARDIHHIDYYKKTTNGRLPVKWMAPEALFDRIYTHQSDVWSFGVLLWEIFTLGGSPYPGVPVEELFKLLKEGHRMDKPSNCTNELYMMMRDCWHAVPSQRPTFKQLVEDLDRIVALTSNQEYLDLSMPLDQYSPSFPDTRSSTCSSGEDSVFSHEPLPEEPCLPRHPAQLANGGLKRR

| SMILES | IC50 (Recombinant human FGFR1) [nM] | IC50 (Recombinant human FGFR2) [nM] | IC50 (FGFR3 kinase) [nM] | IC50 (KG-1) [nM] | IC50 (SNU-16) [nM] |
| --- | --- | --- | --- | --- | --- |
| CONC(=O)c1cc(CCc2cnc(Nc3ccc(N4CCN(C)[C@H](C)C4)cc3)nc2)cc(OC)c1 [Compound 40] | 12 | 10 | 39 | 31 | 48 |
| CCN1CCN(c2ccc(Nc3ncc(CCc4cc(C(=O)NOC)cc(OC)c4Cl)cn3)cc2)CC1 [Compound 59] | 3 | 2 | 2 | 2 | 4 |
| CONC(=O)c1cc(CCc2cnc(Nc3ccc(OC)cc3)nc2)cc(OC)c1 [Compound 106] | 10 | 7 | 35 | 40 | 33 |
| CNC(=O)c1cc(CCc2cnc(Nc3ccn(C)c(=O)c3)nc2)c(F)c(OC)c1 [Compound 93] | 18 | 9 | 11 | 125 | 47 |
| CCN1CCN(c2ccc(Nc3ncc(CCc4cc(C(=O)NOC)cc5occc45)cn3)cc2)CC1 [Compound 5] | 13 | 12 | 47 | 24 | 56 |
| CONC(=O)c1cc(CCc2cnc(Nc3ccc(N4CCOCC4)cc3)nc2)cc(OC)c1 [Compound 37] | 10 | 7 | 16 | 46 | 44 |
| CONC(=O)c1cc(CCc2cnc(Nc3cnn(C)c3)nc2)cc(OC)c1 [Compound 23] | 9 | 6 | 13 | 29 | 18 |
| CCN1CCN(c2cccc(Nc3ncc(CCc4cc(OC)cc(C(=O)NOC)c4)cn3)c2)CC1 [Compound 14, 3-(2-(2-((3-(4-ethylpiperazin-1-yl)phenyl)amino)pyrimidin-5-yl)ethyl)-N,5-dimethoxybenzamide] | 3 | 4 | 4 | 9 | 7 |
| CONC(=O)c1cc(CCc2cnc(Nc3ccc(N4C[C@@H](C)N[C@@H](C)C4)cc3)nc2)cc(OC)c1 [Compound 41] | 4 | 6 | 9 | 38 | 24 |
| CONC(=O)c1cc(CCc2cnc(Nc3ccc(N4CCN(CCO)CC4)cc3)nc2)cc(OC)c1 [Compound 19, 3-(2-(2-((4-(4-(2-hydroxyethyl)piperazin-1-yl)phenyl)amino)pyrimidin-5-yl)ethyl)-N,5-dimethoxybenzamide] | 5 | 5 | 11 | 19 | 22 |
| CCN1CCN(c2ccc(Nc3ccc(CCc4cc(OC)cc(C(=O)NOC)c4)cn3)cn2)CC1 [Compound 75] | 41 | 33 | 61 | 123 | 94 |
| CCN1CCN(c2ccc(Nc3ncc(CCc4cc(OC)cc(C(=O)NOC)c4)cn3)cn2)CC1 [Compound 42] | 2 | 4 | 8 | 11 | 15 |
| CONC(=O)c1cc(CCc2cnc(Nc3cccc(N4C[C@@H](C)N[C@@H](C)C4)c3)nc2)cc(OC)c1 [Compound 18] | 12 | 6 | 8 | 77 | 3 |
| CCN1CCN(c2ccc(Nc3ccc(CCc4cc(C(=O)NOC)cc(OC)c4C)cn3)cc2)CC1 [Compound 47] | 6 | 6 | 8 | 63 | 74 |
| CCN1CCN(c2ccc(Nc3ncc(CCc4cc(OC)cc(C(=O)NOC)c4)cn3)cc2)CC1 [Compound 17] | 4 | 6 | 9 | 9 | 12 |
| CCN1CCN(c2cccc(Nc3ncc(CCc4cc(OC)cc(C(=O)NC)c4)cn3)c2)CC1 [Compound 9, 3-(2-(2-((3-(4-ethylpiperazin-1-yl)phenyl)amino)pyrimidin-5-yl)ethyl)-5-methoxy-N-methylbenzamide] | 38 | 28 | 64 | 98 | 44 |
| CONC(=O)c1cc(CCc2cnc(Nc3ccc(Cl)cc3)nc2)cc(OC)c1 [Compound 113] | 48 | 18 | 146 | 148 | 89 |
| CONC(=O)c1cc(CCc2cnc(Nc3cnn(C)c3)nc2)c(F)c(OC)c1 [Compound 29] | 3 | 2 | 7 | 5 | 5 |
| CCN1CCN(c2cc(F)cc(Nc3ncc(CCc4cc(OC)cc(C(=O)NOC)c4)cn3)c2)CC1 [Compound 77] | 5 | 3 | 4 | 11 | 12 |
| CCN1CCN(c2ccc(Nc3ncc(CCc4cc(C(=O)NC5CC5)cc(OC)c4F)cn3)cc2)CC1 [Compound 57] | 8 | 9 | 14 | 16 | 32 |
